Measured values published in US8895750B2, “Heteroaromatic compounds as BTK inhibitors” (Boehringer Ingelheim International GmbH, priority 2013, dated 2014).

Each molecule was assayed against T1, full-length human His-tagged BTK (Homo sapiens, UniProt Q06187) (assay: BTK HTRF assay (Cisbio KinEASE-TK)). Settings: 6 nM BTK, 15 min preincubation at 28° C., 1 uM TK substrate-biotin, 30 uM ATP.
T1 construct: 6 nM of full-length human His-tagged BTK (Life Technologies cat #PV3587); His; purchased Life Technologies PV3587
T1 sequence (Q06187 whole entry): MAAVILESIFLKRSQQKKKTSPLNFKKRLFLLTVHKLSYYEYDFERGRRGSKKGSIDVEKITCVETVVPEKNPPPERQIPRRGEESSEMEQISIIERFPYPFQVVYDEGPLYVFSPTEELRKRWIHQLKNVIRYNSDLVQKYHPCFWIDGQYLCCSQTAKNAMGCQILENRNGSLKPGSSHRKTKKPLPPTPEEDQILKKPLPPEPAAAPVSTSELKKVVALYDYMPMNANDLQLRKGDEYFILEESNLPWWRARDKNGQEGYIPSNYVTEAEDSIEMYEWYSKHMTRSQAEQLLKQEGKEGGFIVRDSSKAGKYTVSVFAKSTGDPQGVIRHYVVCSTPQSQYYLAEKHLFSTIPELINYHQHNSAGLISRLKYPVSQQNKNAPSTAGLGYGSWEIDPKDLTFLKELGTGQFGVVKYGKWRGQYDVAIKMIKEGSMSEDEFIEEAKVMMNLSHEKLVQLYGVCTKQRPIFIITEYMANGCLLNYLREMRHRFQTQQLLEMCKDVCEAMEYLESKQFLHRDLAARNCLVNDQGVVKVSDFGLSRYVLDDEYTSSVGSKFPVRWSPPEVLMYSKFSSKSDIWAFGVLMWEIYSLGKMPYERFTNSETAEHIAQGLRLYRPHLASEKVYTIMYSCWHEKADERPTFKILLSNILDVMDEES
Format: biochemical
Description: An HTRF assay (Cisbio KinEASE-TK cat #62TK0PEC) was performed to quantitate the ability of test compounds to inhibit BTK mediated phosphorylation of substrate. Assays were assembled in 384 well plates where 6 nM of full-length human His-tagged BTK (Life Technologies cat #PV3587) and test compound at varying concentrations were preincubated for 15 minutes at 28° C. Then, 1 uM of TK substrate-biotin and 30 uM ATP were added and incubated for an additional 30 minutes at 28° C. Phospohrylation was detected by adding 62.5 nM Streptavidin-XL665 and TK-Antibody Cryptate diluted 1:100 in HTRF detection buffer (Cisbio cat #62SDBRDF) and incubated for 60 minutes at RT. The plate was read on an Envision plate reader and the fluoresence is measured at 620 nm (cryptate) and 665 nm (XL665). A ratio is calculated (665/620) and converted to POC relative to control and blank wells.
50 mM HEPES (Invitrogen #15630), 0.01% Brij-35 (sigma #B4184), 10 mM MgC12 (Sigma M1028), 1 mM EGTA (Ambion AM9262) and 100 uM sodium orthovanedate (Sigma S6508), 1 mM DTT (Sigma D5545) and 10 nM supplement enzyme buffer (Cisbio cat#61SEBALB).

SMILES	IC50 [nM]
C=CC(=O)N1CC2(CCN(c3nc(-c4ccc(Oc5ccccc5)cc4)c(C(N)=O)s3)C2)C1 [Example 8]	5.6
C=CC(=O)N1CCCC12CCN(c1nc(-c3ccc(Oc4ccccc4)cc3)c(C(N)=O)s1)CC2 [Example 23]	43
CC#CC(=O)N1CCN(c2nc(-c3ccc(Oc4ccccc4)cc3)c(C(N)=O)s2)[C@@H](C)C1 [Example 21]	1.2
C/C=C/C(=O)N1CC2(C1)CN(c1nc(-c3ccc(Oc4ccccc4)cc3)c(C(N)=O)s1)C2 [Example 14]	> 1000
CC#CC(=O)N1CCN(c2nc(-c3ccc(Oc4ccccc4)cc3)c(C(N)=O)s2)CC1 [Example 7]	0.67
C=CC(=O)N1[C@@H]2CC[C@H]1CN(c1nc(-c3ccc(Oc4ccccc4)cc3)c(C(N)=O)s1)C2 [Example 19]	0.48
C=CC(=O)N1CCC2(C1)CN(c1nc(-c3ccc(Oc4ccccc4)cc3)c(C(N)=O)s1)C2 [Example 1]	8.5
CN(C)C/C=C/C(=O)N1CC2(CCN(c3nc(-c4ccc(Oc5ccccc5)cc4)c(C(N)=O)s3)C2)C1 [Example 10]	110
C[C@H](Cl)C(=O)N1CC2(C1)CN(c1nc(-c3ccc(Oc4ccccc4)cc3)c(C(N)=O)s1)C2 [Example 20]	350
CC#CC(=O)N1C[C@@H]2C[C@H]1CN2c1nc(-c2ccc(Oc3ccccc3)cc2)c(C(N)=O)s1 [Example 16]	1.2
CC#CC(=O)N[C@@H]1CCCN(c2nc(-c3ccc(Oc4ccccc4)cc3)c(C(N)=O)s2)C1 [Example 4]	95
C=CC(=O)N1CC2(C1)CN(c1nc(-c3ccc(Oc4ccccc4)cc3)c(C(N)=O)s1)C2 [Example 12]	4.1
CN(C)C/C=C/C(=O)N1CCN(c2nc(-c3ccc(Oc4ccccc4)cc3)c(C(N)=O)s2)CC1 [Example 22]	2
CC#CC(=O)N1CC2(CCN(c3nc(-c4ccc(Oc5ccccc5)cc4)c(C(N)=O)s3)C2)C1 [Example 9]	4.3
C=CC(=O)N1CCN(c2nc(-c3ccc(Oc4ccccc4)cc3)c(C(N)=O)s2)[C@@H](C)C1 [Example 17]	0.87
CN(C)C/C=C/C(=O)N1CC2(C1)CN(c1nc(-c3ccc(Oc4ccccc4)cc3)c(C(N)=O)s1)C2 [Example 13]	510
CC#CC(=O)N1[C@@H]2CC[C@H]1CN(c1nc(-c3ccc(Oc4ccccc4)cc3)c(C(N)=O)s1)C2 [Example 18]	0.62
C=CC(=O)N1CCN(c2nc(-c3ccc(Oc4ccccc4)cc3)c(C(N)=O)s2)CC1 [Example 6]	0.3
C=CC(=O)N[C@@H]1CCCN(c2nc(-c3ccc(Oc4ccccc4)cc3)c(C(N)=O)s2)C1 [Example 5]	13
NC(=O)c1sc(N2CC3(CN(C(=O)/C=C/CN4CCOCC4)C3)C2)nc1-c1ccc(Oc2ccccc2)cc1 [Example 15]	> 1000
C=CC(=O)N(C)C1CCN(c2nc(-c3ccc(Oc4ccccc4)cc3)c(C(N)=O)s2)CC1 [Example 2]	4.8
CC#CC(=O)N1CC2(C1)CN(c1nc(-c3ccc(Oc4ccccc4)cc3)c(C(N)=O)s1)C2 [Example 11]	8.8
CC#CC(=O)N(C)C1CCN(c2nc(-c3ccc(Oc4ccccc4)cc3)c(C(N)=O)s2)CC1 [Example 3]	2.6

Next, values leading:

IC50 [nM]	SMILES
0.65	CC(C)(O)C#CC(=O)N1CCN(c2nc(-c3ccc(Oc4ccccc4)cc3)c(C(N)=O)s2)CC1 [Example 37]
120	C=CC(=O)NC[C@H]1CCCN1c1nc(-c2ccc(Oc3ccccc3)cc2)c(C(N)=O)s1 [Example 40]
710	C=CC(=O)N1CCN(c2nc(-c3cnn(Cc4ccccc4)c3)c(C(N)=O)s2)CC1 [Example 27]
17	C=CC(=O)N1CCN(c2nc(-c3ccc(Oc4ccccc4)nc3)c(C(N)=O)s2)CC1 [Example 32]
> 1000	CC#CC(=O)N1CCN(c2nc(-c3ccc(S(C)(=O)=O)cc3)c(C(N)=O)s2)CC1 [Example 38]
180	CC#CC(=O)N1CCN(c2nc(-c3ccc(Oc4ccccc4)nc3)c(C(N)=O)s2)CC1 [Example 33]
6.6	C=CC(=O)N1CCN(c2nc(-c3ccc(Br)cc3)c(C(N)=O)s2)CC1 [Example 29]
> 1000	CCC(=O)N1CC2(C1)CN(c1nc(-c3ccc(Oc4ccccc4)cc3)c(C(N)=O)s1)C2 [Example 31]
560	CN(C)C/C=C/C(=O)NC[C@H]1CCCN1c1nc(-c2ccc(Oc3ccccc3)cc2)c(C(N)=O)s1 [Example 44]
> 1000	CC#CC(=O)N1CCN(c2nc(-c3cccc(C(=O)Nc4ccccc4)c3)c(C(N)=O)s2)CC1 [Example 46]
0.69	NC(=O)c1sc(N2CCN(C(=O)C#CCO)CC2)nc1-c1ccc(Oc2ccccc2)cc1 [Example 39]
0.7	NC(=O)c1sc(N2CCN(C(=O)C#CCN3CCOCC3)CC2)nc1-c1ccc(Oc2ccccc2)cc1 [Example 42]
11	C=CC(=O)NC[C@@H]1CCCN1c1nc(-c2ccc(Oc3ccccc3)cc2)c(C(N)=O)s1 [Example 35]
1	CC#CC(=O)N1CCN(c2nc(-c3ccc(Oc4ccccc4)cc3)c(C(N)=O)s2)CC1C (stereo not shown) [Example 25]
150	CC#CC(=O)N1CCCC12CCN(c1nc(-c3ccc(Oc4ccccc4)cc3)c(C(N)=O)s1)CC2 [Example 24]
69	CN(C)CCC(=O)N1CCN(c2nc(-c3ccc(Oc4ccccc4)cc3)c(C(N)=O)s2)CC1 [Example 26]
52	CN(C)C/C=C/C(=O)NC[C@@H]1CCCN1c1nc(-c2ccc(Oc3ccccc3)cc2)c(C(N)=O)s1 [Example 43]
700	C/C=C/C(=O)N1CCN(c2nc(-c3ccc(Oc4ccccc4)nc3)c(C(N)=O)s2)CC1 [Example 34]
73	CC#CC(=O)N1CCN(c2nc(-c3ccc(Br)cc3)c(C(N)=O)s2)CC1 [Example 30]
40	CC#CC(=O)N1CCN(c2nc(-c3ccc(Oc4ccccc4)cn3)c(C(N)=O)s2)CC1 [Example 45]
> 1000	CC#CC(=O)N1CCN(c2nc(-c3cnn(Cc4ccccc4)c3)c(C(N)=O)s2)CC1 [Example 28]
30	CC#CC(=O)NC[C@H]1CCCN1c1nc(-c2ccc(Oc3ccccc3)cc2)c(C(N)=O)s1 [Example 41]
14	CC#CC(=O)NC[C@@H]1CCCN1c1nc(-c2ccc(Oc3ccccc3)cc2)c(C(N)=O)s1 [Example 36]
